Assay results taken from publication PMC7993274 (Clinical and Translational Science, 2020).

How the values were obtained:
[1] = rats, preclinical studies; cited from earlier work
Impact of food on PK = type: in vivo, human; set-up: Cmax adjusted geometric mean (90% CI) for fed vs. fasted / AUC24 adjusted geometric mean for fed vs. fasted (90% CI): unit not given beside the values; conditions: for increase in AUC24 with a meal / increase in Cmax with a meal: fed vs fasted
[2] = Plasma PK, multiple ascending dose; type: in vivo, human; conditions: for AUCτ (dn) / Cmax (dn): dose normalized; for AUCτ (dn) / Cmax (dn) / AUCτ / Cmax: geometric mean (CV %); for Tmax: median (range); for t1/2: arithmetic mean (SD)
[3] = background statement, no reference given; cited from earlier work
[4] = tested on: CYP1A2, CYP2D6, and CYP3A; conditions: cited from earlier work
[5] = pH 6.5; background statement, no reference given; cited from earlier work
OCT2 = conditions: cited from earlier work
MRP3 = conditions: cited from earlier work
OATP1B1 = conditions: cited from earlier work
[6] = MAD day 1 fed Japanese cohort 400 mg q.d.
[7] = MAD day 10 fed Japanese cohort 400 mg q.d.

Cn1cc(-c2cn3nccc3c(-c3cnn([C@]4(CC#N)C[C@@H](C#N)C4)c3)n2)cn1 [PF‐06826647]
drug clearance via renal and biliary excretion [1]: limited drug clearance via renal and biliary excretion
AUC24 adjusted geometric mean for fed vs. fasted (90% CI) (Impact of food on PK; 30 mg): 122.0 (78.7–189.2)
Cmax adjusted geometric mean (90% CI) for fed vs. fasted (Impact of food on PK; 30 mg): 107.2 (74.2–154.8)
increase in AUC24 with a meal (Impact of food on PK; 30 mg): 22%
increase in Cmax with a meal (Impact of food on PK; 30 mg): 7%
AUC24 adjusted geometric mean for fed vs. fasted (90% CI) (Impact of food on PK; 100 mg): 155.7 (99.1–244.6)
Cmax adjusted geometric mean (90% CI) for fed vs. fasted (Impact of food on PK; 100 mg): 160.2 (109.7–234.0)
increase in AUC24 with a meal (Impact of food on PK; 100 mg): 56%
increase in Cmax with a meal (Impact of food on PK; 100 mg): 60%
AUC24 adjusted geometric mean for fed vs. fasted (90% CI) (Impact of food on PK; 400 mg): 175.6 (113.3–272.3)
Cmax adjusted geometric mean (90% CI) for fed vs. fasted (Impact of food on PK; 400 mg): 144.8 (100.2–209.1)
increase in AUC24 with a meal (Impact of food on PK; 400 mg): 76%
increase in Cmax with a meal (Impact of food on PK; 400 mg): 45%
median Tmax with food (Impact of food on PK; fed, day 1 MAD, doses of 30–400 mg): 3.0 to 4.0 h
dose proportionality of AUCτ and Cmax ([2]; MAD 30–400 mg q.d.): less‐than‐dose‐proportional
dose proportionality of AUCτ and Cmax ([2]; MAD 400–1,200 mg q.d.): dose‐proportional
AUCτ (dn) ([2]; MAD day 1 fed 30 mg q.d.): 22.1 (25) ng.hour/mL/mg
Cmax (dn) ([2]; MAD day 1 fed 30 mg q.d.): 2.8 (24) ng/mL/mg
AUCτ ([2]; MAD day 1 fed 30 mg q.d.): 662.8 (25) ng.hour/mL
Cmax ([2]; MAD day 1 fed 30 mg q.d.): 83.5 (24) ng/mL
Tmax ([2]; MAD day 1 fed 30 mg q.d.): 3.0 (2.0–6.0) hour
AUCτ (dn) ([2]; MAD day 1 fed 100 mg q.d.): 18.0 (23) ng.hour/mL/mg
Cmax (dn) ([2]; MAD day 1 fed 100 mg q.d.): 2.7 (20) ng/mL/mg
AUCτ ([2]; MAD day 1 fed 100 mg q.d.): 1,803.0 (23) ng.hour/mL
Cmax ([2]; MAD day 1 fed 100 mg q.d.): 267.2 (20) ng/mL
Tmax ([2]; MAD day 1 fed 100 mg q.d.): 4.0 (1.0–4.0) hour
AUCτ ([2]; MAD day 1 fed 200 mg b.i.d., tau = 12 hours): 1,646.0 (70) ng.hour/mL
Cmax (dn) ([2]; MAD day 1 fed 200 mg b.i.d.): 1.5 (67) ng/mL/mg
Cmax ([2]; MAD day 1 fed 200 mg b.i.d.): 289.8 (67) ng/mL
Tmax ([2]; MAD day 1 fed 200 mg b.i.d.): 4.0 (2.0–6.0) hour
AUCτ (dn) ([2]; MAD day 1 fed 400 mg q.d.): 11.1 (67) ng.hour/mL/mg
Cmax (dn) ([2]; MAD day 1 fed 400 mg q.d.): 1.5 (33) ng/mL/mg
AUCτ ([2]; MAD day 1 fed 400 mg q.d.): 4,424.0 (67) ng.hour/mL
Cmax ([2]; MAD day 1 fed 400 mg q.d.): 585.9 (33) ng/mL
Tmax ([2]; MAD day 1 fed 400 mg q.d.): 3.0 (2.0–6.0) hour
AUCτ (dn) ([2]; MAD day 1 fed 1,200 mg q.d.): 14.2 (20) ng.hour/mL/mg
Cmax (dn) ([2]; MAD day 1 fed 1,200 mg q.d.): 1.7 (10) ng/mL/mg
AUCτ ([2]; MAD day 1 fed 1,200 mg q.d.): 17,090.0 (20) ng.hour/mL
Cmax ([2]; MAD day 1 fed 1,200 mg q.d.): 2,023.0 (10) ng/mL
Tmax ([2]; MAD day 1 fed 1,200 mg q.d.): 2.0 (2.0–4.0) hour
AUCτ [2, 6]: 6,038.0 (29) ng.hour/mL
Cmax [2, 6]: 695.5 (19) ng/mL
Tmax [2, 6]: 4.0 (2.0–4.0) hour
median Tmax ([2]; MAD day 10, standard meal, all doses (30–1,200 mg)): 4 h
t1/2 ([2]; MAD day 10 fed 30 mg q.d.): 8.8 (5.8) hour
AUCτ (dn) ([2]; MAD day 10 fed 30 mg q.d.): 25.1 (32) ng.hour/mL/mg
Cmax (dn) ([2]; MAD day 10 fed 30 mg q.d.): 2.8 (27) ng/mL/mg
AUCτ ([2]; MAD day 10 fed 30 mg q.d.): 752.9 (32) ng.hour/mL
Cmax ([2]; MAD day 10 fed 30 mg q.d.): 85.3 (27) ng/mL
Tmax ([2]; MAD day 10 fed 30 mg q.d.): 4.0 (4.0–6.0) hour
t1/2 ([2]; MAD day 10 fed 100 mg q.d.): 12.7 (12.7) hour
AUCτ (dn) ([2]; MAD day 10 fed 100 mg q.d.): 19.5 (33) ng.hour/mL/mg
Cmax (dn) ([2]; MAD day 10 fed 100 mg q.d.): 2.6 (30) ng/mL/mg
AUCτ ([2]; MAD day 10 fed 100 mg q.d.): 1,952.0 (33) ng.hour/mL
Cmax ([2]; MAD day 10 fed 100 mg q.d.): 263.2 (30) ng/mL
Tmax ([2]; MAD day 10 fed 100 mg q.d.): 4.0 (2.0–4.0) hour
AUCτ ([2]; MAD day 10 fed 200 mg b.i.d., tau = 12 hours): 2,010.0 (49) ng.hour/mL
t1/2 ([2]; MAD day 10 fed 200 mg b.i.d.): 26.9 (8.1) hour
Cmax (dn) ([2]; MAD day 10 fed 200 mg b.i.d.): 1.7 (46) ng/mL/mg
Cmax ([2]; MAD day 10 fed 200 mg b.i.d.): 339.5 (46) ng/mL
Tmax ([2]; MAD day 10 fed 200 mg b.i.d.): 4.0 (2.0–4.0) hour
t1/2 ([2]; MAD day 10 fed 400 mg q.d.): 7.5 (2.6) hour
AUCτ (dn) ([2]; MAD day 10 fed 400 mg q.d.): 13.6 (57) ng.hour/mL/mg
Cmax (dn) ([2]; MAD day 10 fed 400 mg q.d.): 1.7 (37) ng/mL/mg
AUCτ ([2]; MAD day 10 fed 400 mg q.d.): 5,420.0 (57) ng.hour/mL
Cmax ([2]; MAD day 10 fed 400 mg q.d.): 667.3 (37) ng/mL
Tmax ([2]; MAD day 10 fed 400 mg q.d.): 4.0 (2.0–6.0) hour
t1/2 ([2]; MAD day 10 fed 1,200 mg q.d.): 34.3 (21.9) hour
AUCτ (dn) ([2]; MAD day 10 fed 1,200 mg q.d.): 12.4 (31) ng.hour/mL/mg
Cmax (dn) ([2]; MAD day 10 fed 1,200 mg q.d.): 1.5 (21) ng/mL/mg
AUCτ ([2]; MAD day 10 fed 1,200 mg q.d.): 14,890.0 (31) ng.hour/mL
Cmax ([2]; MAD day 10 fed 1,200 mg q.d.): 1,855.0 (21) ng/mL
Tmax ([2]; MAD day 10 fed 1,200 mg q.d.): 4.0 (2.0–4.0) hour
t1/2 [2, 7]: 7.4 (4.8) hour
AUCτ [2, 7]: 7,194.0 (20) ng.hour/mL
Cmax [2, 7]: 887.0 (11) ng/mL
Tmax [2, 7]: 4.0 (2.0–6.0) hour
plasma accumulation ([2]; after multiple dosing, q.d. and b.i.d.): < 1.5 fold
steady‐state reached by ([2]; both q.d. and b.i.d. dosing): ≤ 2 days
cellular permeability [3]: ~ 17 × 10^‐6 cm/s
major human clearance pathway [4]: cytochrome P450 (CYP)‐mediated (via CYP1A2, CYP2D6, and CYP3A) metabolism
solubility [5]: ~ 0.3 μg/mL
inhibition of transporter protein OCT2 (OCT2): minimal inhibition
inhibition of transporter protein MRP3 (MRP3): minimal inhibition
inhibition of transporter protein OATP1B1 (OATP1B1): minimal inhibition
